Data reported in patent publication US8304238B2, “Cell culture medium and immobilized preparation of cell adhesion protein or peptide” (Nat'l Institute for Environmental Studies, priority 2003, dated 2012).
“Also recorded” adds a separate entry of the source. Where no end group is shown, it is not given here.

Legend:
[1] = system: alveolar type II epithelial cells (T2 cells); assay: Binding strength (affinity) of immobilized LN peptides to T2 cells relative to immobilized FIB-1 (mixed immobilization, free FIB-1 competition); assay type: cell-based; set-up: key to Binding strength to T2 cells, Comprehensive evaluation: AA: extremely strongly binding/adhering; A: strongly binding/adhering; B: intermediately binding/adhering (as the same degree as FIB-1 peptide); C: more weakly binding/adhering than FIB-1 peptide; details: for Binding strength to T2 cells, Comprehensive evaluation: classification relative to FIB-1 peptide; for Binding strength to T2 cells, Ratio to FIB-1: inverse of mixing ratio at transitional midpoint, MMAC-coated well; for Binding strength to T2 cells, Ratio to FIB-1 / Mixing ratio at the transitional midpoint: FIB-1 0.25 mg/ml; for Mixing ratio at the transitional midpoint: peptide:FIB-1 co-immobilized, loss of inhibition by free FIB-1
Method: Therefore, the amount of FIB-1 peptide was set at 0.25 mg/ml, and AG73 peptide was mixed therewith, while changing its concentration ratio, from 1/1.250 of FIB-1 in an amount which is 0.20 μg/ml, to ½ of FIB-1 in an amount which is 0.125 mg/ml, and the mixture was immobilized on a well wherein a hydrophobic binding-adsorptive polymer MMAC was coated. The amount of cell adhesion in the case where T2 cells were cultured under a serum-free condition for 1 day on the immobilized peptides is shown in FIG. 9, in comparison with the case where the culture was conducted on the immobilized FIB-1, which was set at 100%.
However, in a case that the ratio of FIB-1:AG73 increased to 1:0.02, because T2 cells already transited to be adherent through the immobilized AG73 peptide, free FIB-1 peptide could no longer inhibit the cell adhesion. […] Likewise, with regard to A3G72 and A4G82 peptides, because the mixing ratio at the transitional midpoint=0.1, their binding strength to T2 cells is 10 times as much as that of FIB-1.
The method used in FIGS. 8 and 9 is extremely effective as a convenient method by which a relative order can be measured concerning to the binding strength (affinity) of cell adhesion peptides and the strength of cell adhesion can be considered quantitatively.
In Table 1, the classification is shown based on the results of the affinity (bonding/adhesion strength) between FIB-1 peptide containing RGD amino acid sequence of FN molecule, a binding site to integrin, and T2 cells: laminin α-chain G-domain peptides are classified into class AA, extremely strong binding/adhesion; class A, strong adhesion; class B, adhesion as the same degree as FIB-1; and class C, binding weaker than the described above.

[2] = system: alveolar type II epithelial cells (T2 cells); assay: Inhibition by free cell adhesion peptides of T2 cell adhesion to coated cell adhesion proteins FN, Col I, LN, VN; assay type: cell-based; details: for Inhibition of adhesion of T2 cells to FN, Col I, LN and VN by free peptide: free peptide 0.25 mg/ml, serum-free, 1 day
Method: Commercially available FN, LN and VN, usually used as cell adhesion proteins at cell culture, were coated to wells at the concentrations of 5 μg/ml, 10 μg/ml and 10 μg/ml, respectively. In case of Col I (collagen type I), Col I at the concentration of 100 μg/ml, dissolved in 1 mM HCl, was poured into a well, left stand still for a while, and then the solution was removed and air-drying was conducted, and rinsed with the medium, before use. Next, 6×10^5 cells/ml of alveolar type II epithelial cells (T2 cells) suspended in the serum-free DMEM medium was seeded by 100 μl each on a 96-well to which the extracellular matrix was coated, and cultured in a CO2 incubator at 37° C. for 1 day. After the culture was finished, the cells were fixed with 100 μl of methanol for 5 minutes, and stained for 30 minutes with 50 μl of 0.4% crystal violet. Excessive staining was washed with water, then the number of cells adhered to FN, Col I, LN and VN, which had been coated to the wells, was counted based on the absorbance of cytoplasm (A595).
On the other hand, among amino acid sequences of various LN molecules, the sequences that induce cell adhesion are known to be present. […] Then, the number of cells was counted in accordance with the method described above.

[3] = system: alveolar type II epithelial cells (T2 cells); assay: Inhibition of T2 cell adhesion by free peptide different from the immobilized peptide substrate; assay type: cell-based; details: for Inhibition by free peptide of T2 cell adhesion to immobilized AG73: AG73 (etc.) immobilized; for Inhibition by free peptide of T2 cell adhesion to immobilized FIB-1: FIB-1 immobilized
Method: Results obtained by adding the free peptides different from the immobilized peptides when T2 cells were cultured on the immobilized peptide prepared according to the method in Example 7, were shown in FIG. 8.
When adding the free peptides that were the same as the immobilized peptides in the culture medium, the both (free and immobilized) peptides compete for syndecan of T2 cells and as a result, the cell adhesion is inhibited (see Example 7). So far, four types of syndecans are genetically known. Whether these syndecans are commonly owned or accommodated by each peptide, overlapping only by some degrees, otherwise mutually exclusive, was examined herein.

[4] = system: alveolar type II epithelial cells (T2 cells); assay: Time course of cell adhesion/spreading of T2 cells on immobilized cell adhesion peptide substrates; assay type: cell-based
Method: Culture was conducted by using the cell adhesion peptides immobilized on a well and T2 cells, for 1-24 hours according to the method in Example 8.
As cell adhesion peptides, AG73 was used in B, E and M, FIB-1 was used in C, L and O, A3G72 was used in F, A4G82 was used in G and N, A5G71 was used in H, A5G77 was used in I, hA3G75 was used in J, and hA3G83 was used in K; FN was used as a standard substance in A and D.

[5] = system: alveolar type II epithelial cells (T2 cells); assay: Static and forced stretching culture of T2 cells on MMAC-coated silicone wells with immobilized proteins or peptides; assay type: cell-based; details: for Reorientation of T2 cells under forced stretching: 1 day static, 1 day stretching (1dC-1dS), 25 percent, 15 times per minute; for Change of type II epithelial cells into a shape like type I epithelial cells: 3 days static, 3 days stretching (3dC-3dS)
Method: A silicone well coated with MMAC was obtained by pouring 0.5 ml of ethanol solution of 50 μg/ml of MMAC (ISP, International Specialty Products, USA) into a silicone well with a groove of 20 mm×20 mm×10 mm, absorbing excess solution, and conducting air-drying.
Into the silicone wells coated by the method described in Example 1, 10 μg/ml of cell adhesion protein solution of fibronectin (FN), laminin-1 (LN), dissolved in 0.1 M triethanolamine buffer solution of pH 8.8, or 0.25 mg/ml of cell adhesion peptide solution of FIB-1, AG73 was poured respectively, and the reaction was conducted for at least several hours at 37° C. to bind and immobilize these proteins or peptides having cell adhesion activity (see Example 6 described later for particulars of immobilization). Subsequently, alveolar type II epithelial cell (T2 cells) suspension was poured, 5×10^4/cm^2 per unit area, and the culture was started in a CO2 culture apparatus.
T2 cells, 2×10^5/cm^2 per unit area, were seeded on the silicone well wherein the cell adhesion proteins or peptides were immobilized, which had been prepared in an almost same manner as that of Example 2, and static culture was conducted for 1 day. After confirming that the seeded cells confluently spread all over the culture face, horizontal cell stretching was forcibly started at the stretching degree of twenty five percents and at the frequency of 15 times per minute, by using cell culture stretching apparatus (Scholar Tec), and the culture was continued one more day. After the culture was finished, photographs of cell adhesion state were taken with a phase contrast microscope (FIG. 2, top 4 rows).
T2 cells, 5×10^4/cm^2 per unit area, were seeded on the silicone well wherein the cell adhesion proteins or peptides were immobilized, which had been prepared in an almost same manner as that of Example 2, and static culture was conducted for 3 days. T2 cells grew in a manner similar to that shown in FIG. 1, 3d (results are not shown because they are overlapping). Then, the cells were subjected to the same stimuli of forced stretching as in Example 1, and the culture was continued one more day. After the culture was finished, photographs of cell adhesion state were taken with a phase contrast microscope (FIG. 2, middle 4 rows) (FN, 3dC-1dS, LN, 3dC-1dS, FIB-1, 3dC-1dS, and AG-73, 3dC-1dS).
Forced stretching culture was conducted for 3 days in an almost same manner as stretching culture of Example 4. After the culture was finished, photographs of cell adhesion state were taken with a phase contrast microscope (FIG. 2, bottom 4 rows) (FN, 3dC-3dS, LN, 3dC-3dS, FIB-1, 3dC-3dS, and AG-73, 3dC-3dS).

[6] = biological target: syndecan present on the cell surface of T2 cells (alveolar type II epithelial cells); assay: T2 cell adhesion to immobilized peptides, competitive inhibition by free peptides (FIGS. 8 and 9)
[7] = biological target: syndecan present on the cell surface of T2 cells (alveolar type II epithelial cells); assay: T2 cell adhesion to FIB-1 and the peptide co-immobilized on MMAC-coated wells, inhibition by free FIB-1 (FIG. 9)

Molecule	Binding strength to T2 cells, Comprehensive evaluation [1]	Binding strength to T2 cells, Ratio to FIB-1 [1]	Mixing ratio at the transitional midpoint [1]	Inhibition of adhesion of T2 cells to FN, Col I, LN and VN by free peptide [2]	Inhibition by free peptide of T2 cell adhesion to immobilized AG73 [3]	Inhibition by free peptide of T2 cell adhesion to immobilized FIB-1 [3]	Cell adhesion/spreading on immobilized peptide ([4]; 6-hour culture)	Binding strength to T2 cells, Ratio to FIB-1 (fold (ratio to FIB-1)) [6]	mixing ratio at the transitional midpoint (peptide to FIB-1) [7]	other results
TLFLAHGRLVFM	A	10	0.1	inhibited adhesion of T2 cells	inhibited the cell adhesion	could inhibit	the cells were spreading			Cell adhesion/spreading on immobilized peptide ([4]; 24-hour culture): almost all cells had finished spreading
fibronectin [FN]										Reorientation of T2 cells under forced stretching [5]: not very obvious; Change of type II epithelial cells into a shape like type I epithelial cells [5]: less observed
GNSTISIRAPVY	B	1-2	about 1	inhibited adhesion of T2 cells	inhibited the cell adhesion	could inhibit	delay in spreading but sufficient cell adhesion			
laminin-1 [LN]										Reorientation of T2 cells under forced stretching [5]: not very obvious; Change of type II epithelial cells into a shape like type I epithelial cells [5]: changed into a shape like flat type I epithelial cells
KPRLQFSLDIQT	A	10	0.1	inhibited adhesion of T2 cells	inhibited the cell adhesion		the cells were spreading			
RKRLQVQLSIRT	AA	100	0.01	inhibited adhesion of T2 cells	inhibited the cell adhesion	inhibited; also recorded: could inhibit	the cells were spreading			Inhibition of adhesion of T2 cells to cell adhesion proteins by free peptide ([2]; free peptide 0.12 mg/ml): exhibited the inhibitory activity; Cell adhesion/spreading on immobilized peptide ([4]; 24-hour culture): almost all cells had finished spreading; Reorientation of T2 cells under forced stretching [5]: spread in an elongated shape to a direction perpendicular to the direction of forced stretching; Change of type II epithelial cells into a shape like type I epithelial cells [5]: changed into a shape like flat type I epithelial cells
KNSFMALYLSKG	B	2	about 1	inhibited adhesion of T2 cells	inhibited the cell adhesion	could inhibit	delay in spreading but sufficient cell adhesion			
VKTEYIKRKAFM [AG81.2 (Val-Lys-Thr-Glu-Tyr-Ile-Lys-Arg-Lys-Ala-Phe-Met)]								< 1		
KNSFMALYLSKG [hA3G75 (Lys-Asn-Ser-Phe-Met-Ala-Leu-Tyr-Leu-Ser-Lys-Gly)]								2	1	
LVLFLNHGHFVA [A5G77 (Leu-Val-Leu-Phe-Leu-Asn-His-Gly-His-Phe-Val-Ala)]									1	
GNSTISIRAPVY [hA3G83 (Gly-Asn-Ser-Thr-Ile-Ser-Ile-Arg-Ala-Pro-Val-Tyr)]									1	
KPRLQFSLDIQT [A3G72 (Lys-Pro-Arg-Leu-Gln-Phe-Ser-Leu-Asp-Ile-Gln-Thr)]								10	0.1	
TLFLAHGRLVFM [A4G82 (Thr-Leu-Phe-Leu-Ala-His-Gly-Arg-Leu-Val-Phe-Met)]								10	0.1	
